Experimental data from patent US8987320B2, “Solid salt forms of a pyrrole substituted 2-indolinone” (Zoetis LLC, priority 2005, dated 2015).
Read-outs that look alike come from different tables or passages of the source.

What was measured:
[1] = Estimation of solubility in various solvents by step-wise solvent addition; type: physicochemical
Description: Samples of 1-2 mg of Compound I phosphate (lot 35282-CS-51) were transferred to 10 mL glass vials (tared) and were weighed (accurate to 0.1 mg). Solvents were added to the vials (one solvent to each vial) in a step-wise fashion, with 0.5 mL of solvent added at each step. Solvents used were buffer (pH=2), buffer (pH=5), water, methanol, tetrahydrofuran (THF), acetonitrile, and acetone. After each addition, the vial was capped and shaken. The dissolution of solid was visually observed. If no obvious dissolution was observed, more solvent was added immediately. If dissolution was apparent, the vial was left on the bench for at least 30 minutes before the next addition of solvent. This step was repeated until no crystals were visible against a black and a white background. The solubility was then bracketed by dividing the weight of the compound by the final volume and the volume before the last addition. If a solid remained after the addition of 10 mL of solvent, the solubility was expressed as less than the weight divided by the final volume. If the solid was completely dissolved after the first addition of solvent, the solubility was expressed as greater than the weight divided by the solvent volume. All experiments were conducted at room temperature.

[2] = Wettability with water; type: physicochemical

Q: Which Estimated solubility ([1]; Acetone, 23° C.) does the source give for `Cc1[nH]c(/C=C2\C(=O)Nc3ccc(F)cc32)c(C)c1C(=O)NCCN1CCCC1` [Compound I phosphate] here?
A: <<<0.2 mg/mL

Q: And the Estimated solubility ([1]; Acetonitrile, 23° C.)?
A: <<<0.13 mg/mL

Q: And the Estimated solubility ([1]; THF, 23° C.)?
A: <<<0.19 mg/mL

Q: What about the solubility ([1]; buffer (pH 2), pH 2, at pH 2 or lower, read-out: solubility) of the same molecule?
A: > 3 mg/mL

Q: And the solubility ([1]; buffer (pH 2, HCl and KCl), 23 °C, pH 2, aqueous buffer, thermodynamic from solid, buffer (pH = 2, HCl and KCl), 23° C., read-out: Estimated solubility)?
A: 5.9 to 7.4 mg/mL

Q: What about the Estimated solubility ([1]; methanol, 23° C.) of the same molecule?
A: ~0.14 mg/mL

Q: What about the solubility ([1]; water, 23 °C, pH 4.91, water, thermodynamic from solid, water, 23° C., final solution pH 4.91, read-out: Estimated solubility) of the same molecule?
A: ~0.29 mg/mL

Q: And the “wettability with water compared with Compound I free base” value [2]?
A: much better
